Test results published in patent publication US20060264443A1, “Treatment of rheumatoid arthritis” (priority 2002, published 2006).
Where two headings read alike, the source gives them in different places.

Tests used:
[1] = tested on: patients with active severe rheumatoid arthritis; settings: for Serum C-reactive protein: normal reference range <10 mg/l; for Rheumatoid factor: normal reference range <14 IU/ml
Experimental: If grade 3 or 4 toxicity occurs at the dose of 200 mg/day, the patient is removed from the study.
On each visit complete physical check up is performed (including blood pressure, pulse, body weight) and the following parameters will be assessed:
The oral glucocorticoid dose is required to be 15 mg or less of prednisone or equivalent.
A dose-escalation scheme is used. The starting dose is 200 mg per day for 2 weeks given as one 100 mg capsule taken in the morning and another in the afternoon.
The injected joints were omitted from efficacy analyses.
The primary efficacy measures were: change in the number of tender and swollen joints among the 66 diarthrodial joints, patient assessed pain and disease activity as estimated using the visual analogue scales (VAS), change in the blood erythrocyte sedimentation rate (ESR) and the serum C-reactive protein (CRP) level, and change in the health assessment questionnaire (HAQ) score. […] Serum CRP and blood ESR are measured prior to the study and on the study weeks 2, 4, 8, and 12.

In the case of `CS(=O)(=O)O.Cc1ccc(NC(=O)c2ccc(CN3CCN(C)CC3)cc2)cc1Nc1nccc(-c2cccnc2)n1` [SALT I], the “anti-rheumatic effect, duration” value ([1]; 2 patients who completed the 12-week study) is reported as “sustained during the study period”, the “outcome measures during SALT I therapy (overall)” value ([1]; 3 patients, 200 to 400 mg/day, up to 12 weeks) is reported as “All outcome measures improved” and the HAQ ([1]; Patient 1, week 8, baseline 1.75) is reported as 1.5. For the same compound, the “Serum C-reactive protein” value ([1]; Patient 1, week 8, baseline 10) was 11 mg/L, the Erythrocyte sedimentation rate ([1]; Patient 1, week 8, baseline 38) was 23 mm/h and the “Patient-assessed disease activity (VAS)” value ([1]; Patient 1, week 8, baseline 77) was 39 mm. The “Pain (VAS)” value ([1]; Patient 1, week 8, baseline 79) was 42 mm, the Rheumatoid factor ([1]; Patient 1, week 8, baseline 197) was 65 IU/ml and the HAQ ([1]; Patient 2, week 12, baseline 1.75) was 0.75. The “Serum C-reactive protein” value ([1]; Patient 2, week 12, baseline 36) was 12 mg/L, the “Pain (VAS)” value ([1]; Patient 2, week 12, baseline 77) was 26 mm and the “Patient-assessed disease activity (VAS)” value ([1]; Patient 2, week 12, baseline 96) was 35 mm. The Rheumatoid factor ([1]; Patient 2, week 12, baseline 501) was 270 IU/ml, the Erythrocyte sedimentation rate ([1]; Patient 2, week 12, no baseline value) was 13 mm/h and the HAQ ([1]; Patient 3, week 12, baseline 1.5) was 1.1. For the same compound, the Erythrocyte sedimentation rate ([1]; Patient 3, week 12, baseline 28) was 12 mm/h, the “Pain (VAS)” value ([1]; Patient 3, week 12, baseline 37) was 22 mm and the “Serum C-reactive protein” value ([1]; Patient 3, week 12, baseline 42) was 10 mg/L. For the same compound, the “Patient-assessed disease activity (VAS)” value ([1]; Patient 3, week 12, baseline 69) was 23 mm, the Morning stiffness ([1]; Patient no. 1, during the study, from 45 min) was “none” and the “blood erythrocyte sedimentation rate” value ([1]; Patient no. 3, 24 weeks) was 17 mm/h. The “duration of the morning stiffness” value ([1]; Patient no. 3, 24 weeks) was 30 min, the “serum CRP level” value ([1]; Patient no. 3, 24 weeks) was 9 mg/L and the “serum rheumatoid factor level” value ([1]; Patient no. 3, 24 weeks) was 139 IU/ml. The “number of swollen joints” value ([1]; Patient no. 3, 24 weeks, 400 mg o.d.) was 15, the Morning stiffness ([1]; Patient no. 3, during the study (12 weeks), from 180 min) was 75 min and the “response of rheumatoid arthritis to treatment” value ([1]; all 3 patients) was “responded favorably”. For the same compound, the “joint pain reported by all patients” value ([1]; first week of treatment, subsided below baseline during second study week) was “increased joint pain”, the RA status (patient with severe RA; January 2003, 400 mg daily, prior RA medication discontinued) was “still in remission” and the “occasional macroscopic hematuria (RA-associated glomerulonephritis)” value (patient with severe RA; Jun. 14, 2001) was “had ceased”. For the same compound, the “patient-reported RA condition” value (patient with severe RA; Jun. 14, 2001, 400 mg/day, prednisone reduced to 5 mg o.d.) was “further subjective improvement of their RA”, the RA status (patient with severe RA; September 2001) was “still in remission” and the RA condition (patient with severe RA; after 2 and 5 months of treatment, with prednisone 5 mg/day) was “further major improvements”. For the same compound, the patient-reported general condition (patient with severe RA; after several days, with prednisone 5 mg/day, 600 mg then 400 mg/day orally) was “improved joint motility and decrease of wrist swelling” and the “patient-reported RA condition” value (patient with severe RA; control visit April 17, 600 mg/day for nine days, pause, then 400 mg/day from April 11) was “improved joint motility and decreased swelling particularly in the wrists”.
